The target of one experiment is LC3B (Homo sapiens, UniProt Q9GZQ8). Briefly: Fluorescence Polarization (FP) Assay: displacement of FITC-labeled peptide from GST-LC3B. In kind it is binding.
Details: not given
Here is the method:
The compounds of the present invention for regulating the autophagy-related protein LC3B were tested by Fluorescence Polarization (FP) Assay.
Fluorescence Polarization (FP) Assay Test
In general terms: Polarisation of emitted light reports the rotation of a fluorescent probe.
For `CN1C(=O)C(=CNCCN2CCN(CCO)CC2)C(=O)N(C)C1=O` [Compound 10, 5-(((2-(4-(2-hydroxyethyl)piperazin-1-yl)ethyl)amino)methylene)-1,3-dimethylpyrimidine-2,4,6(1H,3H,5H)-trione], the IC50 (usually the concentration that inhibits the measured activity by half) was 100 to 1000 µM.

The same experiment, now with this note: Fluorescence Polarization assay; GST-LC3B 180 nM, FITC-labeled peptide 18 nM, 25° C.; read-out: IC50.
For `CC1(C)OC(=O)C(=CNCCN2CCN(CCO)CC2)C(=O)O1` [Compound 1, 5-(((2-(4-(2-hydroxyethyl)piperazin-1-yl)ethyl)amino)methylene)-2,2-dimethyl-1,3-dioxane-4,6-dione], the IC50 lay in the range of 100 to 1000 µM. On the same count and under the same terms, the value for `NC=C1C(=O)CC(c2ccccc2)CC1=O` (stereo not shown) [Compound 2, 2-(aminomethylene)-5-phenylcyclohexane-1,3-dione] was 3 to 15 µM; that for `CSC=C1C(=O)CC(c2ccccc2)CC1=O` (stereo not shown) [Compound 4A, 2-((methylthio)methylene)-5-phenylcyclohexane-1,3-dione] was 3 to 15 µM.

For `O=C1CC(c2ccccc2)CC(=O)C1=CNc1cccnc1` (stereo not shown) [Compound 7, 5-phenyl-2-((pyridin-3-ylamino)methylene) cyclohexane-1,3-dione], the 50% inhibitory concentration (IC50) fell in the range of 3 to 15 µM. Still for that read-out and setting: the value for `O=C1CC(c2ccccc2)CC(=O)C1=CNCCN1CCN(CCO)CC1` (stereo not shown) [Compound 8, 2-(((2-(4-(2-hydroxyethyl)piperazin-1-yl)ethyl)amino)methylene)-5-phenylcyclohexane-1,3-dione] was less than 3 µM; that for `O=C1C(=CNCCN2CCN(CCO)CC2)C(=O)c2ccccc21` [Compound 9, 2-(((2-(4-(2-hydroxyethyl)piperazin-1-yl)ethyl)amino)methylene)-1H-indene-1,3(2H)-dione] was 100 to 1000 µM.

Take `O=C1CCCC(=O)C1=CNCCN1CCN(CCO)CC1` [Compound 11, 2-(((2-(4-(2-hydroxyethyl)piperazin-1-yl)ethyl)amino)methylene) cyclohexane-1,3-dione]: the IC50 lay within 100 to 1000 µM. In the case of `O=C1COCC(=O)C1=CNCCN1CCN(CCO)CC1` [Compound 12, 4-(((2-(4-(2-hydroxyethyl)piperazin-1-yl)ethyl)amino)methylene)-2H-pyran-3,5(4H,6H)-dione], the IC50 lay within 100 to 1000 µM. Same read-out and setting: in the case of `CC1CC(=O)C(=CNCCN2CCN(CCO)CC2)C(=O)C1` (stereo not shown) [Compound 14, 2-(((2-(4-(2-hydroxyethyl)piperazin-1-yl)ethyl)amino)methylene)-5-methylcyclohexane-1,3-dione] it was 100 to 1000 µM; in that of `COc1cc(OC)c2c(c1Cl)O[C@@]1(C(=O)/C(=C\NCCN3CCN(CCO)CC3)C(=O)C[C@H]1C)C2=O` [Compound 15, (2R,6′R)-7-chloro-3′-(((2-(4-(2-hydroxyethyl)piperazin-1-yl)ethyl)amino)methylene)-4,6-dimethoxy-6′-methyl-3H-spiro[benzofuran-2,1′-cyclohexane]-2′,3,4′-trione], 3 to 15 µM.

`O=C1CC(c2ccnc3[nH]ccc23)CC(=O)C1=CNCCN1CCN(CCO)CC1` (stereo not shown) [Compound 17, 2-(((2-(4-(2-hydroxyethyl)piperazin-1-yl)ethyl)amino)methylene)-5-(1H-pyrrolo[2,3-b]pyridin-4-yl)cyclohexane-1,3-dione]: the IC50 is 3 to 15 µM. The same measure, in the same setting: in the case of `O=C1CC(c2c[nH]c3ncccc23)CC(=O)C1=CNCCN1CCN(CCO)CC1` (stereo not shown) [Compound 18, 2-(((2-(4-(2-hydroxyethyl)piperazin-1-yl)ethyl)amino)methylene)-5-(1H-pyrrolo[2,3-b]pyridin-3-yl)cyclohexane-1,3-dione] it was 3 to 15 µM; in that of `COCCn1ccc2c(C3CC(=O)C(=CNCCN4CCN(CCO)CC4)C(=O)C3)ccnc21` (stereo not shown) [Compound 19, 2-(((2-(4-(2-hydroxyethyl)piperazin-1-yl)ethyl)amino)methylene)-5-(1-(2-methoxyethyl)-1H-pyrrolo[2,3-b]pyridin-4-yl)cyclohexane-1,3-dione], 15 to 100 µM; in that of `O=C1CC(c2cnc3c(ccc4cccnc43)c2)CC(=O)C1=CNCCN1CCN(CCO)CC1` (stereo not shown) [Compound 20, 2-(((2-(4-(2-hydroxyethyl)piperazin-1-yl)ethyl)amino)methylene)-5-(1,10-phenanthrolin-3-yl)cyclohexane-1,3-dione], 100 to 1000 µM. On the same count and under the same terms, the value for `O=C1CC(c2ccc(Sc3ccccc3)cc2)CC(=O)C1=CNCCN1CCN(CCO)CC1` (stereo not shown) [Compound 21, 2-(((2-(4-(2-hydroxyethyl)piperazin-1-yl)ethyl)amino)methylene)-5-(4-(phenylthio)phenyl) cyclohexane-1,3-dione] was 15 to 100 µM. Still for that read-out and setting: in the case of `Cn1nnc(-c2ccc(C3CC(=O)C(=CNCCN4CCN(CCO)CC4)C(=O)C3)cc2)n1` (stereo not shown) [Compound 22, 2-(((2-(4-(2-hydroxyethyl)piperazin-1-yl)ethyl)amino)methylene)-5-(4-(2-methyl-2H-tetrazol-5-yl)phenyl) cyclohexane-1,3-dione] it was 100 to 1000 µM; in that of `COc1cc(C2CC2)c(C2CC(=O)C(=CNCCN3CCN(CCO)CC3)C(=O)C2)cc1OC` (stereo not shown) [Compound 23, 5-(2-cyclopropyl-4,5-dimethoxyphenyl)-2-(((2-(4-(2-hydroxyethyl)piperazin-1-yl)ethyl)amino)methylene) cyclohexane-1,3-dione], 3 to 15 µM; in that of `O=C1CC(c2c[nH]c3cccc(F)c23)CC(=O)C1=CNCCN1CCN(CCO)CC1` (stereo not shown) [Compound 24, 5-(4-fluoro-1H-indol-3-yl)-2-(((2-(4-(2-hydroxyethyl)piperazin-1-yl)ethyl)amino)methylene) cyclohexane-1,3-dione], less than 3 µM.

In the case of `O=C1CC(c2cnc3c(N4CCOCC4)nccn23)CC(=O)C1=CNCCN1CCN(CCO)CC1` (stereo not shown) [Compound 25, 2-(((2-(4-(2-hydroxyethyl)piperazin-1-yl)ethyl)amino)methylene)-5-(8-morpholinoimidazo [1,2-a]pyrazin-3-yl) cyclohexane-1,3-dione], the concentration for half-maximal inhibition (IC50) was 100 to 1000 µM. Still for that read-out and setting: the value for `COc1cc2ncnc(C3CC(=O)C(=CNCCN4CCN(CCO)CC4)C(=O)C3)c2cc1OC` (stereo not shown) [Compound 26, 5-(6,7-dimethoxyquinazolin-4-yl)-2-(((2-(4-(2-hydroxyethyl)piperazin-1-yl)ethyl)amino)methylene) cyclohexane-1,3-dione] was 15 to 100 µM; that for `O=C1CC(c2ncnc3sccc23)CC(=O)C1=CNCCN1CCN(CCO)CC1` (stereo not shown) [Compound 27, 2-(((2-(4-(2-hydroxyethyl)piperazin-1-yl)ethyl)amino)methylene)-5-(thieno[2,3-d]pyrimidin-4-yl)cyclohexane-1,3-dione] was 15 to 100 µM. Still for that read-out and setting: the value for `Cc1ccccc1C1CC(=O)C(=CNCCN2CCN(CCO)CC2)C(=O)C1` (stereo not shown) [Compound 28, 2-(((2-(4-(2-hydroxyethyl)piperazin-1-yl)ethyl)amino)methylene)-5-(o-tolyl)cyclohexane-1,3-dione] was 3 to 15 µM; that for `CC1(c2ccccc2)CC(=O)C(=CNCCN2CCN(CCO)CC2)C(=O)C1` (stereo not shown) [Compound 29, 2-(((2-(4-(2-hydroxyethyl)piperazin-1-yl)ethyl)amino)methylene)-5-methyl-5-phenylcyclohexane-1,3-dione] was 100 to 1000 µM; that for `CC1(C)O[C@@H]2[C@H](O1)[C@@H](C1CC(=O)C(=CNCCN3CCN(CCO)CC3)C(=O)C1)O[C@H]2n1cnc2c(N3CCOCC3)ncnc21` (stereo partly drawn) [Compound 30, 5-((3aR,4R,6R,6aR)-2,2-dimethyl-6-(6-morpholino-9H-purin-9-yl)tetrahydrofuro[3,4-d][1,3]dioxol-4-yl)-2-(((2-(4-(2-hydroxyethyl)piperazin-1-yl)ethyl)amino)methylene) cyclohexane-1,3-dione] was 100 to 1000 µM. `O=C1CC(COc2ccccc2)CC(=O)C1=CNCCN1CCN(CCO)CC1` (stereo not shown) [Compound 31, 2-(((2-(4-(2-hydroxyethyl)piperazin-1-yl)ethyl)amino)methylene)-5-(phenoxymethyl) cyclohexane-1,3-dione]: the IC50 was 3 to 15 µM. On the same count and under the same terms, in the case of `O=C1CC(COc2cccc(F)c2)CC(=O)C1=CNCCN1CCN(CCO)CC1` (stereo not shown) [Compound 32, 5-((3-fluorophenoxy)methyl)-2-(((2-(4-(2-hydroxyethyl)piperazin-1-yl)ethyl)amino)methylene) cyclohexane-1,3-dione] it was 3 to 15 µM. Consider `O=C1CC(c2ccc(-c3ncnc4[nH]cnc34)cc2)CC(=O)C1=CNCCN1CCN(CCO)CC1` (stereo not shown) [Compound 33, 5-(4-(9H-purin-6-yl)phenyl)-2-(((2-(4-(2-hydroxyethyl)piperazin-1-yl)ethyl)amino)methylene)cyclohexane-1,3-dione], for which the IC50 is 15 to 100 µM. Same read-out and setting: in the case of `COCCOCCOc1cccc(C2CC(=O)C(=CNCCN3CCN(CCO)CC3)C(=O)C2)c1` (stereo not shown) [Compound 34, 2-(((2-(4-(2-hydroxyethyl)piperazin-yl)ethyl)amino)methylene)-5-(3-(2-(2-methoxyethoxy)ethoxy)phenyl)cyclohexane-1,3-dione] it was less than 3 µM; in that of `O=C1CC(c2ccc(N3CCOCC3)cc2)CC(=O)C1=CNCCN1CCN(CCO)CC1` (stereo not shown) [Compound 35, 2-(((2-(4-(2-hydroxyethyl)piperazin-1-yl)ethyl)amino)methylene)-5-(4-morpholinophenyl) cyclohexane-1,3-dione], 15 to 100 µM; in that of `CN1CCN(c2ccc(C3CC(=O)C(=CNCCN4CCN(CCO)CC4)C(=O)C3)cc2)CC1` (stereo not shown) [Compound 36, 2-(((2-(4-(2-hydroxyethyl)piperazin-1-yl)ethyl)amino)methylene)-5-(4-(4-methylpiperazin-1-yl)phenyl) cyclohexane-1,3-dione], 100 to 1000 µM. On the same count and under the same terms, in the case of `O=C1CC(c2cccs2)CC(=O)C1=CNCCN1CCN(CCO)CC1` (stereo not shown) [Compound 37, 2-(((2-(4-(2-hydroxyethyl)piperazin-1-yl)ethyl)amino)methylene)-5-(thiophen-2-yl) cyclohexane-1,3-dione] it was less than 3 µM. Same read-out and setting: the value for `O=C1CC(c2c[nH]c3ccccc23)CC(=O)C1=CNCCN1CCN(CCO)CC1` (stereo not shown) [Compound 39, 2-(((2-(4-(2-hydroxyethyl)piperazin-1-yl)ethyl)amino)methylene)-5-(1H-indol-3-yl) cyclohexane-1,3-dione] was less than 3 µM; that for `O=C1CC(c2ccc(O)cc2)CC(=O)C1=CNCCN1CCN(CCO)CC1` (stereo not shown) [Compound 40, 2-(((2-(4-(2-hydroxyethyl)piperazin-1-yl)ethyl)amino)methylene)-5-(4-hydroxyphenyl) cyclohexane-1,3-dione] was less than 3 µM.

For the origin of these results see patent US11319303B2 (WIGEN BIOMEDICINE TECHNOLOGY (SHANGHAI) CO., LTD., priority 2017, dated 2022).
